The assay has as its system PRKACA-PRKAR2A interaction (SmBiT-PRKACA / LgBiT-PRKAR2A), protein kinase A. Details: NanoLuc complementation counter-screen in cell extract, PRKACA with PRKAR2A, loss of luminescence, detects NanoLuc interference. Conditions: 0.5 h, 20 µM, inhibitor.
The mark [1] stands for this setting: counter-screen for NanoLuc interference.

Counter-ions that a name gives are not always drawn. Like-named read-outs stand apart in the source and are kept apart here. Square brackets hold non-standard residues; d marks the D form. Peptide text beside a SMILES is read from it. * marks the point of attachment. Sta = CC(C)C[C@H](N)[C@@H](O)CC(=O)O; Isovaleryl = CC(C)CC(=O)*

`Nc1nc(N)c2nc(-c3ccccc3)c(N)nc2n1` [UM0118431:03, Triamterene]: the “Inh (PKA)” value under setting [1] is listed as 1.702%.
Same read-out and setting: under `CN1CCN(CCCN2c3ccccc3Sc3ccc(C(F)(F)F)cc32)CC1` [UM0118432:03, Trifluoperazine 2HCl] stands 8.71%; under `Clc1ccccc1CN1CCc2sccc2C1` [UM0118440:03, Ticlopidine HCl], 23.02%; under `CCc1nc(N)nc(N)c1-c1ccc(Cl)cc1` [UM0118442:03, Pyrimethamine], 0.5127%.
Still for that read-out and setting: under `Cc1cccc(Nc2ccccc2C(=O)O)c1C` [UM0118444:03, Mefenamic Acid] stands 19.56%; under `CN1CCN2c3ccccc3Cc3ccccc3C2C1` (centres unmarked) [UM0118451:03, Mianserin HCl], 11.82%.
Consider `C[N+]1(C)CCC(=C(c2ccccc2)c2ccccc2)CC1` [UM0118457:03, Diphemanil Methylsulfate], for which, under setting [1], the “Inh (PKA)” value was -0.1303%.
Turning to `COc1ccc2c(c1)c(CC(=O)O)c(C)n2C(=O)c1ccc(Cl)cc1` [UM0118515:03, Indomethacin], under setting [1], the “Inh (PKA)” value stood at 5.004%.
The same measure, in the same setting: the result for `CS(=O)(=O)Nc1ccc([N+](=O)[O-])cc1Oc1ccccc1` [UM0118531:03, Nimesulide] reads 82.23%; that for `CCCCOc1ccc(CC(=O)NO)cc1` [UM0118579:03, Bufexamac], 1.558%; that for `CCCCNc1cc(C(=O)O)cc(S(N)(=O)=O)c1Oc1ccccc1` [UM0118581:03, Bumetanide], 2.877%.
Same read-out and setting: under `CC(C)CC(=O)N[C@H](C(=O)N[C@H](C(=O)N[C@@H](CC(C)C)[C@@H](O)CC(=O)N[C@@H](C)C(=O)N[C@@H](CC(C)C)[C@@H](O)CC(=O)O)C(C)C)C(C)C` [UM0118622:03, Pepstatin A] (Isovaleryl-VV[Sta]A[Sta]-OH) stands 1.204%.
The same measure, in the same setting: the result for `C[C@](N)(Cc1ccc(O)c(O)c1)C(=O)O` [UM0118624:04, Methyldopa] reads -0.4014%; that for `Nc1c2c(nc3ccccc13)CCCC2` [UM0118625:03, Tacrine hydrochloride], 1.154%; that for `C#CCN(C)CCCOc1ccc(Cl)cc1Cl` [UM0118650:03, Clorgyline (hydrochloride)], 10.49%.
In the case of `COc1cccc2c1C(=O)c1c(O)c3c(c(O)c1C2=O)C[C@@](O)(C(C)=O)C[C@@H]3O[C@H]1C[C@H](N)[C@H](O)[C@H](C)O1` [UM0118677:04, Daunorubicin HCl], the “Inh (PKA)” value under setting [1] came out at 42.12%.
The same measure, in the same setting: under `CNCCC(Oc1ccc(C(F)(F)F)cc1)c1ccccc1` (centres unmarked) [UM0118682:03, Fluoxetine HCl] stands 5.529%; under `CC(=O)Oc1cc(C(F)(F)F)ccc1C(=O)O` [UM0118728:03, Triflusal], 6.12%.
Still for that read-out and setting: under `CCCc1ncc(C[n+]2ccccc2C)c(N)n1` [UM0118750:03, Amprolium HCl] stands -0.09679%.
Take `Cc1cc2c(cc1S(N)(=O)=O)S(=O)(=O)CCC2` [UM0118751:03, Meticrane]: the “Inh (PKA)” value under setting [1] is given as 1.197%.
Still for that read-out and setting: under `COc1cc2nc(N3CCN(C(=O)C4COc5ccccc5O4)CC3)nc(N)c2cc1OC` (centres unmarked) [UM0118850:03, Doxazosin Mesylate] stands 2.176%; under `Cc1cc2c(C(C)C)c(O)c(O)c(C=O)c2c(O)c1-c1c(C)cc2c(C(C)C)c(O)c(O)c(C=O)c2c1O` [UM0118855:03, Gossypol], 56.08%; under `NS(=O)(=O)c1cc(Cl)c(Cl)c(S(N)(=O)=O)c1` [UM0118893:03, Dichlorphenamide], -0.9742%.
Still for that read-out and setting: under `CCN[C@H]1CN(CCCOC)S(=O)(=O)c2sc(S(N)(=O)=O)cc21` [UM0118906:03, Brinzolamide] stands -0.219%.
Consider `CCN[C@H]1C[C@H](C)S(=O)(=O)c2sc(S(N)(=O)=O)cc21` [UM0118923:03, Dorzolamide HCl], for which, under setting [1], the “Inh (PKA)” value is recorded as -0.4651%.
With `O=P1(NCCCl)OCCCN1CCCl` (centres unmarked) [UM0118931:03, Ifosfamide], the “Inh (PKA)” value is on record as -0.3336%.
On to `CS(=O)(=O)c1ccc([C@@H](O)[C@@H](CF)NC(=O)C(Cl)Cl)cc1` [UM0118980:03, Florfenicol], for which the “Inh (PKA)” value under setting [1] is reported as -0.2471%.
On to `Cc1c(OCC(F)(F)F)ccnc1C[S+]([O-])c1nc2ccccc2[nH]1` (centres unmarked) [UM0118982:03, Lansoprazole], for which, under setting [1], the “Inh (PKA)” value is listed as 1.885%.
For the molecule `Cc1c(OCC(F)(F)F)ccnc1C[S@@+]([O-])c1nc2ccccc2[nH]1` [UM0118982:04, Dexlansoprazole], under setting [1], the “Inh (PKA)” value stood at 2.726%.
Same read-out and setting: the result for `CC(C)(Oc1ccc(C2CC2(Cl)Cl)cc1)C(=O)O` (centres unmarked) [UM0119000:03, Ciprofibrate] reads 9.84%; that for `CCOC(=O)c1ccc(OC(=O)CCCCCNC(=N)N)cc1` [UM0119043:03, Gabexate mesylate], 2.691%.
The same measure, in the same setting: the result for `Nc1ccc(O)c(C(=O)O)c1` [UM0119062:03, Mesalamine] reads 8.926%; that for `CC(C)(C(=O)c1cccnc1)c1cccnc1` [UM0119067:03, Metyrapone], 1.858%; that for `Cc1cccc(Nc2ccncc2S(=O)(=O)NC(=O)NC(C)C)c1` [UM0119116:03, Torsemide], 21.46%.
Still for that read-out and setting: under `O=C(O[C@@H]1Cc2c(O)cc(O)cc2O[C@@H]1c1cc(O)c(O)c(O)c1)c1cc(O)c(O)c(O)c1` [UM0119174:03, (-)-Epigallocatechin gallate (EGCG)] stands 17.48%; under `O=C1Cc2c([nH]c3ccc(Br)cc23)-c2ccccc2N1` [UM0119194:04, Kenpaullone], 40.47%; under `O=c1oc2c(O)c(O)cc3c(=O)oc4c(O)c(O)cc1c4c23` [UM0119370:03, Ellagic acid], 2.639%.
`CCCCCCCCCCC[C@@H](C[C@@H]1OC(=O)[C@H]1CCCCCC)OC(=O)[C@H](CC(C)C)NC=O` [UM0119382:03, Orlistat]: under setting [1], the “Inh (PKA)” value was -0.3481%.
As for `C=CCc1ccc(O)c(-c2ccc(O)c(CC=C)c2)c1` [UM0119411:03, Honokiol], the “Inh (PKA)” value under setting [1] is 48.27%.
Take `c1ccc2c(Cc3c[nH]c4ccccc34)c[nH]c2c1` [UM0119470:03, 3,3'-Diindolylmethane]: the “Inh (PKA)” value under setting [1] was 34.9%.
Still for that read-out and setting: the result for `Nc1ccncc1` [UM0119500:03, 4-Aminopyridine] reads 0.4521%; that for `CC(=O)Oc1ccccc1C(=O)O` [UM0119503:03, Aspirin (Acetylsalicylic acid)], 1.275%; that for `CC(=O)N[C@@H](CS)C(=O)O` [UM0119535:03, Acetylcysteine], 1.097%.
Still for that read-out and setting: under `COc1ccc(C(=O)N2CCCC2=O)cc1` [UM0119560:03, Aniracetam] stands 4.422%; under `NC(=O)c1ccccc1` [UM0119596:03, Benzamide], -0.9754%; under `O=C1CCc2cc(OCCCCc3nnnn3C3CCCCC3)ccc2N1` [UM0119639:03, Cilostazol], 4.034%.
On the same count and under the same terms, under `C[C@@](Cc1ccc(O)c(O)c1)(NN)C(=O)O` [UM0119735:03, Carbidopa] stands 2.512%; under `NCCc1ccc(O)c(O)c1` [UM0119875:03, Dopamine HCl], 1.983%.
In the case of `NCCc1c[nH]cn1` [UM0119882:03, Histamine 2HCl], where the note is “counter-screen for NanoLuc interference, Inh (PKA)”, the “Inh (PKA)” value is listed as 0.5416%.
As for `O=S(=O)(c1cccc2c(I)cccc12)N1CCCNCC1` [UM0119920:03, ML-7 hydrochloride], the “Inh (PKA)” value under setting [1] is 17.89%.
Still for that read-out and setting: the result for `COc1ccc2c(c1)c(CC(=O)N1CCOCC1)c(C)n2C(=O)c1ccc(Cl)cc1` [UM0119946:02, BML-190] reads 40.28%; that for `Nc1nnc(-c2cccc(Cl)c2Cl)c(N)n1` [UM0119947:03, Lamotrigine], 0.956%; that for `COc1cc2c(cc1O)CC[C@@H]1[C@@H]2CC[C@]2(C)[C@@H](O)CC[C@@H]12` [UM0119979:04, 2-Methoxyestradiol (2-MeOE2)], 12.97%.
On the same count and under the same terms, the result for `NC(=O)c1ncn([C@@H]2O[C@H](CO)[C@@H](O)[C@H]2O)c1O` [UM0119983:03, Mizoribine] reads -0.2089%.
Still for that read-out and setting: under `CSC(=N)N` [UM0119990:03, (S)-Methylisothiourea sulfate] stands -0.9184%.
With `O=[N+]([O-])c1cccc2cn[nH]c12` [UM0120050:03, 7-Nitroindazole], the “Inh (PKA)” value under setting [1] came to 2.182%.
The same measure, in the same setting: the result for `CC(C)N(CCC(=O)c1ccc2ccccc2c1)Cc1ccccc1` [UM0120052:04, ZM 39923 HCl] reads 18.59%; that for `CNC[C@H](O)c1cccc(O)c1` [UM0120096:03, Phenylephrine HCl], 0.7851%.
The same measure, in the same setting: under `S=C(S)N1CCCC1` [UM0120164:03, Pyrrolidinedithiocarbamate ammonium] stands 13.75%.
For `NCCS(=O)(=O)O` [UM0120232:03, Taurine], the “Inh (PKA)” value under setting [1] was -1.533%.
Same read-out and setting: the result for `N#CC(C#N)=Cc1ccc(O)c(O)c1` [UM0120250:03, AG-18] reads 48.6%.
As to `CC(C)(C)c1cc(C=C(C#N)C#N)cc(C(C)(C)C)c1O` [UM0120315:03, Tyrphostin 9], under setting [1], the “Inh (PKA)” value is on record as 80.34%.
On the same count and under the same terms, the result for `Nc1nccs1` [UM0120610:02, Aminothiazole] reads 1.156%; that for `O=c1oc2cc(O)ccc2s1` [UM0120621:02, Tioxolone], 1.741%; that for `N[C@@H](CCC(=O)N[C@@H](CS)C(=O)NCC(=O)O)C(=O)O` [UM0120654:03, L-Glutathione Reduced], -0.7865%.
Still for that read-out and setting: under `O=C(O)c1cc(O)c(O)c(O)c1` [UM0120666:03, Gallic acid] stands -0.4526%.
On the same count and under the same terms, under `Cc1cc(O)c2c(c1)C(=O)c1cccc(O)c1C2=O` [UM0121046:03, Chrysophanol] stands 14.51%; under `CN(C)CCC[C@@]1(c2ccc(F)cc2)OCc2cc(C#N)ccc21` [UM0121246:02, Escitalopram Oxalate], -0.3205%.
